Assays:
Experiment in all cases: relative viability (nuclei count vs DMSO), 5 days (fraction); higher = more cells survive
[1] = test system: A-427
How it was run: (§1)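 For relative viability, nuclei counts in treated wells were divided by those in vehicle wells. Lung cancer cell lines had been pin-tool dosed in 1536-well plates the day after seeding and cultured for 5 days, then fixed and stained in one step (final 0.05% Triton X-100, 1% formaldehyde, 1 ug/ml Hoechst) and imaged at 4×. Doses were one drug alone or a fixed anchor-drug dose plus five library-drug doses (not always all listed) in √10 steps, and values are duplicate-plate medians.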

[2] = test system: HCC-15
How it was run: as §1

[3] = test system: HCC-78
How it was run: as §1

[4] = test system: HOP-62
How it was run: as §1

[5] = test system: LC-2-ad
How it was run: as §1

[6] = test system: LOU-NH91
How it was run: as §1

[7] = test system: LXF-289
How it was run: as §1

[8] = test system: NCI-H1734
How it was run: as §1

[9] = test system: NCI-H1755
How it was run: as §1

[10] = test system: NCI-H1792
How it was run: as §1

[11] = test system: NCI-H1915
How it was run: as §1

[12] = test system: NCI-H1975
How it was run: as §1

[13] = test system: NCI-H2126
How it was run: as §1

[14] = test system: NCI-H2228
How it was run: as §1

[15] = test system: NCI-H2342
How it was run: as §1

[16] = test system: NCI-H2347
How it was run: as §1

[17] = test system: NCI-H358
How it was run: as §1

[18] = test system: NCI-H460
How it was run: as §1

[19] = test system: NCI-H522
How it was run: as §1

[20] = test system: NCI-H647
How it was run: as §1

[21] = test system: PC-3 [JPC-3]
How it was run: as §1

[22] = test system: RERF-LC-KJ
How it was run: as §1

[23] = test system: SK-LU-1
How it was run: as §1

[24] = test system: SW 1573
How it was run: as §1

C[C@@H]1CN(CC(=O)Nc2ccc3c(c2)Cc2cccc(-c4cc(=O)cc(N5CCOCC5)o4)c2S3)C[C@H](C)O1 + Nc1nc2[nH]cc(CCc3ccc(C(=O)N[C@@H](CCC(=O)O)C(=O)O)cc3)c2c(=O)[nH]1 [Pemetrexed] (partner 0.2 µM)
relative viability ([1]; first compound 0.04 µM): 1.05 | relative viability ([1]; first compound 0.1265 µM): 1.04 | relative viability ([1]; first compound 0.4 µM): 1.02 | relative viability ([1]; first compound 4 µM): 0.921 | relative viability ([2]; first compound 0.04 µM): 0.212 | relative viability ([2]; first compound 0.1265 µM): 0.203 | relative viability ([2]; first compound 0.4 µM): 0.224 | relative viability ([2]; first compound 4 µM): 0.212 | relative viability ([3]; first compound 0.04 µM): 0.809 | relative viability ([3]; first compound 0.1265 µM): 0.84 | relative viability ([3]; first compound 0.4 µM): 0.889 | relative viability ([3]; first compound 4 µM): 0.917 | relative viability ([4]; first compound 0.04 µM): 0.318 | relative viability ([4]; first compound 0.1265 µM): 0.33 | relative viability ([4]; first compound 0.4 µM): 0.317 | relative viability ([4]; first compound 4 µM): 0.455 | relative viability ([5]; first compound 0.04 µM): 0.272 | relative viability ([5]; first compound 0.1265 µM): 0.248 | relative viability ([5]; first compound 0.4 µM): 0.291 | relative viability ([5]; first compound 4 µM): 0.249 | relative viability ([6]; first compound 0.04 µM): 0.339 | relative viability ([6]; first compound 0.1265 µM): 0.367 | relative viability ([6]; first compound 0.4 µM): 0.36 | relative viability ([6]; first compound 4 µM): 0.329 | relative viability ([7]; first compound 0.04 µM): 0.884 | relative viability ([7]; first compound 0.1265 µM): 0.99 | relative viability ([7]; first compound 0.4 µM): 0.89 | relative viability ([7]; first compound 4 µM): 0.818 | relative viability ([8]; first compound 0.04 µM): 0.424 | relative viability ([8]; first compound 0.1265 µM): 0.405 | relative viability ([8]; first compound 0.4 µM): 0.386 | relative viability ([8]; first compound 4 µM): 0.398 | relative viability ([9]; first compound 0.04 µM): 0.401 | relative viability ([9]; first compound 0.1265 µM): 0.507 | relative viability ([9]; first compound 0.4 µM): 0.453 | relative viability ([9]; first compound 4 µM): 0.47 | relative viability ([10]; first compound 0.04 µM): 0.72 | relative viability ([10]; first compound 0.1265 µM): 0.766 | relative viability ([10]; first compound 0.4 µM): 0.719 | relative viability ([10]; first compound 4 µM): 0.591 | relative viability ([11]; first compound 0.04 µM): 0.478 | relative viability ([11]; first compound 0.1265 µM): 0.426 | relative viability ([11]; first compound 0.4 µM): 0.413 | relative viability ([11]; first compound 4 µM): 0.358 | relative viability ([12]; first compound 0.04 µM): 0.268 | relative viability ([12]; first compound 0.1265 µM): 0.263 | relative viability ([12]; first compound 0.4 µM): 0.303 | relative viability ([12]; first compound 4 µM): 0.274 | relative viability ([13]; first compound 0.04 µM): 0.668 | relative viability ([13]; first compound 0.1265 µM): 0.657 | relative viability ([13]; first compound 0.4 µM): 0.77 | relative viability ([13]; first compound 4 µM): 0.695 | relative viability ([14]; first compound 0.04 µM): 0.333 | relative viability ([14]; first compound 0.1265 µM): 0.351 | relative viability ([14]; first compound 0.4 µM): 0.34 | relative viability ([14]; first compound 4 µM): 0.226 | relative viability ([15]; first compound 0.04 µM): 0.745 | relative viability ([15]; first compound 0.1265 µM): 0.777 | relative viability ([15]; first compound 0.4 µM): 0.767 | relative viability ([15]; first compound 4 µM): 0.729 | relative viability ([16]; first compound 0.04 µM): 0.413 | relative viability ([16]; first compound 0.1265 µM): 0.408 | relative viability ([16]; first compound 0.4 µM): 0.413 | relative viability ([16]; first compound 4 µM): 0.381 | relative viability ([17]; first compound 0.04 µM): 0.179 | relative viability ([17]; first compound 0.1265 µM): 0.154 | relative viability ([17]; first compound 0.4 µM): 0.162 | relative viability ([17]; first compound 4 µM): 0.157 | relative viability ([18]; first compound 0.04 µM): 0.0638 | relative viability ([18]; first compound 0.1265 µM): 0.0634 | relative viability ([18]; first compound 0.4 µM): 0.0696 | relative viability ([18]; first compound 4 µM): 0.0616 | relative viability ([19]; first compound 0.04 µM): 0.691 | relative viability ([19]; first compound 0.1265 µM): 0.89 | relative viability ([19]; first compound 0.4 µM): 1.11 | relative viability ([19]; first compound 4 µM): 1.11 | relative viability ([20]; first compound 0.04 µM): 0.19 | relative viability ([20]; first compound 0.1265 µM): 0.154 | relative viability ([20]; first compound 0.4 µM): 0.102 | relative viability ([20]; first compound 4 µM): 0.155 | relative viability ([21]; first compound 0.04 µM): 1.04 | relative viability ([21]; first compound 0.1265 µM): 1.09 | relative viability ([21]; first compound 0.4 µM): 1.21 | relative viability ([21]; first compound 4 µM): 0.943 | relative viability ([22]; first compound 0.04 µM): 0.521 | relative viability ([22]; first compound 0.1265 µM): 0.465 | relative viability ([22]; first compound 0.4 µM): 0.461 | relative viability ([22]; first compound 4 µM): 0.443 | relative viability ([23]; first compound 0.04 µM): 1.08 | relative viability ([23]; first compound 0.1265 µM): 0.933 | relative viability ([23]; first compound 0.4 µM): 1.01 | relative viability ([23]; first compound 4 µM): 0.756 | relative viability ([24]; first compound 0.04 µM): 0.935 | relative viability ([24]; first compound 0.1265 µM): 0.855 | relative viability ([24]; first compound 0.4 µM): 0.903 | relative viability ([24]; first compound 4 µM): 0.822
